Assay results reported in patent publication US6362208B1, “Anilide compounds and drugs containing the same” (Kowa Company, Ltd., priority 1997, dated 2002).

What was measured:
[1] = target: T1, ACAT, small intestine-derived enzyme (Oryctolagus cuniculus, UniProt G1SFD9); experiment: ACAT inhibitory action, small intestine-derived enzyme; format: biochemical; conditions: rabbit small intestine enzyme solution, 14C-Oleoyl-CoA, 37° C., 3 minutes
T1 sequence (G1SFD9 1-524): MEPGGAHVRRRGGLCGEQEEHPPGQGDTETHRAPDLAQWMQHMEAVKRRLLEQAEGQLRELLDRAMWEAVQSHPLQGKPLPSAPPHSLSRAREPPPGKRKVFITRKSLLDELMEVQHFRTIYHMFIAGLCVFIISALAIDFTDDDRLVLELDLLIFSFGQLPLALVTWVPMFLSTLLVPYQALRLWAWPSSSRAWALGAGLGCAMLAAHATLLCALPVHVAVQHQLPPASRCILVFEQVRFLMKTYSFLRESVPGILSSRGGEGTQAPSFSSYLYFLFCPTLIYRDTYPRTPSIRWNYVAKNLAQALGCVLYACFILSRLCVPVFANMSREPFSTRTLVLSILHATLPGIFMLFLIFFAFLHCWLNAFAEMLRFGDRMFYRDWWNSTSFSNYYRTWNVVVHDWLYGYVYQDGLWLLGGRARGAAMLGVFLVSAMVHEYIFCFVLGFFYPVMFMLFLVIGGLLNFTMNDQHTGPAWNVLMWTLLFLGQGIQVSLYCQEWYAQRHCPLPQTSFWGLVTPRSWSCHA
Experimental: (§1) In a conventional manner, microsome was prepared from the thoracic aorta of a rabbit fed with a 1% cholesterol diet for 8 weeks, which was then suspended in 0.15 M phosphate buffer, pH 7.4, to prepare an enzyme solution. An enzyme solution was prepared from a rabbit small intestine on normal diet, which was defined as an enzyme solution derived from small intestine.
(§2) 10 μl of an enzyme solution was added to the resulting solution for reaction at 37° C. for […] (small intestine-derived enzyme solution was subjected to reaction for 3 minutes). Subsequently, the reaction was terminated by adding 3 ml of chloroform/methanol (2/1) and 0.5 ml of 0.04 N hydrochloric acid to the reaction solution, to extract lipid. The solvent layer was concentrated and dried, which was then dissolved in hexane and spotted on a TLC plate (manufactured by Merck, Co.). The plate was eluted with hexane:ether:acetic acid (75:25:1). The radioactivity of the resulting cholesterol ester fraction was assayed by BAS 2000 (manufactured by Fuji Photo Film, Co., Ltd.). Compared with the radioactivity of a control prepared by single addition of DMSO, IC50 was determined.

ACAT in J774 cells = target: T2, ACAT in J774 cells (Mus musculus, UniProt Q61263); experiment: ACAT inhibitory action (anti-foaming action) in J774 cells, cholesterol ester formation; format: cell-based; conditions: for IC50: J774 cells, 10 μg/ml 25-OH cholesterol, 18-hr culturing, cholesterol ester per protein, read-out: IC50 (μM) of J774-derived enzyme; for IC50 (HepG2)/IC50 (J774): ratio HepG2 / J774
T2 construct: J774 cells or HepG2 cells were inoculated on a 24-well plate; endogenous in cells; host or cells: J774 cells
T2 sequence (Q61263 1-540): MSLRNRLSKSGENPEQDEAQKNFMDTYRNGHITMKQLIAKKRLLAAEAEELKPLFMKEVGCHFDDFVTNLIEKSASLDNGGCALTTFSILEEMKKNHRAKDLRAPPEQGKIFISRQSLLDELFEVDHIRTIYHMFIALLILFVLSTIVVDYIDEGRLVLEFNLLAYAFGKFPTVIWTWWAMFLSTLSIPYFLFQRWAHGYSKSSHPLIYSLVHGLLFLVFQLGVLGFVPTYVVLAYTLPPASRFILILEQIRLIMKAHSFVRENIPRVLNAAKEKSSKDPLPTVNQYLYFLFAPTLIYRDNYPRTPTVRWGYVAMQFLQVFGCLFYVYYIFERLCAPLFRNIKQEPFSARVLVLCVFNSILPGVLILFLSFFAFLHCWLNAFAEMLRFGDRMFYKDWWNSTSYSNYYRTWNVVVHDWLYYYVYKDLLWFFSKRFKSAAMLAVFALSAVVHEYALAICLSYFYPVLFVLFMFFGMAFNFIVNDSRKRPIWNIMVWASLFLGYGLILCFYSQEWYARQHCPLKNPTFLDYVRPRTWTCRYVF
Experimental: (§3) J774 cells or HepG2 cells were inoculated on a 24-well plate; J774 cells and HepG2 cells were cultured in DMEM and MEM culture broths (each of the broths containing 10% calf fetus serum), respectively, in a 5% CO2 incubator at 37° C. for 24 hours. […] After discarding the culture media, the resulting cultures were rinsed twice with PBS and extracted with 1.5 ml of hexane:isopropanol (3:2), for concentration and drying. The extracts were dissolved in isopropanol containing 0.2 ml of 10% Triton X-100, to assay total cholesterol (TC) and free cholesterol (FC) by using Cholesterol E Test WAKO (manufactured by Wako Pure Chemicals, Co.) and Free Cholesterol E Test Wako (manufactured by Wako Pure Chemicals, Co.). […] Based on the difference between TC and FC, cholesterol ester was calculated per protein, to determine IC50, compared with the calculated control IC50 value.

ACAT in HepG2 cells = experiment: ACAT inhibitory action in HepG2 cells, cholesterol ester formation; format: cell-based; conditions: 10 μg/ml 25-OH cholesterol, 18-hr culturing, cholesterol ester per protein, read-out: IC50 (μM) of HepG2-derived enzyme
Experimental: as §3

[2] = target: ACAT, vascular wall-derived enzyme (Oryctolagus cuniculus, UniProt G1SUQ0); experiment: ACAT inhibitory action, vascular wall-derived enzyme (microsome from thoracic aorta of cholesterol-fed rabbit); format: biochemical; conditions: 14C-Oleoyl-CoA, 37° C.
Experimental: as §1, §2

Chain of ACAT, vascular wall-derived enzyme (G1SUQ0 entry or part of it): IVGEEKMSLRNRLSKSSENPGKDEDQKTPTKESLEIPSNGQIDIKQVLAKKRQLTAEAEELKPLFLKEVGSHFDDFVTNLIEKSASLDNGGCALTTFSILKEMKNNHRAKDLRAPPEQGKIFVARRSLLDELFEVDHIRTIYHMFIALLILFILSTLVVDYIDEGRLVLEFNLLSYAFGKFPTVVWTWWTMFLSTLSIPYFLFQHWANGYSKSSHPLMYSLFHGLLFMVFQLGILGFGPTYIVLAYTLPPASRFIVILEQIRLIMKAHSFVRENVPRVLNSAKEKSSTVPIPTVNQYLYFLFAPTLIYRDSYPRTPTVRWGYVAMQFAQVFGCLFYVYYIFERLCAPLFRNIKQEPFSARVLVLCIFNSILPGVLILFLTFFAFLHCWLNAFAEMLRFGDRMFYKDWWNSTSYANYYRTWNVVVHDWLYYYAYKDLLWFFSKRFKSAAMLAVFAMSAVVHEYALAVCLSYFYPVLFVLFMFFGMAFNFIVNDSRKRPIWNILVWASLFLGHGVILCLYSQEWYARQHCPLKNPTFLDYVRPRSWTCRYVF

CCCCCCCCCN(CC(C)(C)C)C(=O)N[C@H]1CCCC[C@@H]1OC(=O)CCNC(=O)C1OC(C)(C)OCC1(C)C (stereo partly drawn) [Control 3, N-(2,2,5,5-tetramethyl-1,3-dioxan-4-ylcarbonyl)-β-alanine 2(S)-[N′-(2,2-dimethylpropyl)-N′-nonylureido]-1(S)-cyclohexyl ester, reference compound]
IC50 [1]: 0.056 µM
IC50 (ACAT in J774 cells): 0.32 µM
IC50 (HepG2)/IC50 (J774) (ACAT in J774 cells): 4.3

CCCCCCCN(CCCCCSc1nc(-c2ccccc2)c(-c2ccccc2)[nH]1)c1nc2ccccc2o1 [Control 4, reference compound]
IC50 (ACAT in HepG2 cells): 0.75 µM
IC50 [1]: 0.037 µM
IC50 (ACAT in J774 cells): 0.12 µM
IC50 (HepG2)/IC50 (J774) (ACAT in J774 cells): 6.3
IC50 [2]: 0.026 µM

COC(=O)c1ccc2oc(SCCCCCC(=O)Nc3c(C(C)C)cccc3C(C)C)nc2c1 [Example 34, 6-(5-methoxycarbonylbenzoxazol-2-ylthio)-N-(2,6-diisopropylphenyl)hexanamide]
IC50 (ACAT in HepG2 cells): 8.15 µM
IC50 (ACAT in J774 cells): 0.6 µM
IC50 (HepG2)/IC50 (J774) (ACAT in J774 cells): 13.5
melting point: 104 to 106 °C

CC(C)c1cccc(C(C)C)c1NC(=O)CCCCCSc1nc2cnccc2[nH]1 [Example 6, 6-(imidazolo[4,5-c]pyridin-2-ylthio)-N-(2,6-diisopropylphenyl)hexanamide]
IC50 (ACAT in HepG2 cells): 10 µM
IC50 (ACAT in J774 cells): 10 µM
IC50 (HepG2)/IC50 (J774) (ACAT in J774 cells): 1.0
melting point: 96 to 98 °C
